Data from patent US20250002526A1, “PHARMACEUTICAL COMPOSITION HAVING ANTI-CANCER IMMUNOSTIMULATING EFFECT AND/OR IMMUNE CHECKPOINT INHIBITION POTENTIATING EFFECT” (KYUSHU UNIVERSITY, NATIONAL UNIVERSITY CORPORATION, priority 2021, published 2025).
Entries after “also recorded” stand apart in the source; their conditions may differ. Where two headings read alike, the source gives them in different places.

Assays:
[1] = test system: SULT2B1b-mediated CS production in E0771-SULT cells; assay: CS production inhibitory effect in E0771-SULT cells (LC/MS/MS quantification of CS); format: cell-based, mouse; settings: Mus musculus; for activity at 10 µM: relative to control (100%)
How it was run: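 Mouse E0771 breast cancer cells expressing SULT2B1b, seeded at 5×10^5 cells/well and cultured 24 h with or without test compound. CS extracted with deuterated internal standards and quantified by LC/MS/MS (ESI, MRM) against calibration curves. Values are % of CS production in untreated cells.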

E0771-SULT-PD-L1 cells = assay: In vivo tumor growth of E0771-SULT-PD-L1 cells with anti-PD-L1 antibody treatment; design: species or system mouse; settings: oral cholenoic acid combined with anti-PD-L1 antibody, days 9, 12 and 15 after transplantation
Experimental: As described later for each experiment, 200 μl of an anti-mouse PD-L1 antibody (10F.9G2, 0.5 mg/ml, BioXCell) or a control of the matched isotype (LTF-2, 0.5 mg/ml, BioXCell) was intraperitoneally injected into tumor-bearing mice (see experimental results (3)).
Cholenoic acid was suspended in 0.5% (w/v) methylcellulose 400 solution (FUJIFILM Wako Pure Chemical Corporation) at a proportion of 50 mg/ml, and a 200-μl portion (10 mg) of the suspension was orally administered to mice (see experimental results (6)). To examine the effect on the tumor infiltration of OTII cells or OTI T cells, 5 mg of cholenoic acid was orally administered three times at intervals of 6 hours in 2 days before the assay. […]
The growth of tumors was monitored by measuring the vertical diameters of each tumor with a caliper twice a week and calculating the tumor volumes from the following expression.

C[C@H](CCC(=O)O)[C@H]1CC[C@H]2[C@@H]3CC=C4C[C@@H](O)CC[C@]4(C)[C@H]3CC[C@]12C [Compound 1, (R)-4-((3S,8S,9S,10R,13R,14S,17R)-3-hydroxy-10,13-dimethyl-2,3,4,7,8,9,10,11,12,13,14,15,16,17-tetradecahydro-1H-cyclopenta[a]phenanthren-17-yl)pentanoic acid]
activity at 10 µM ([1]; 24 h, read-out: CS production % activity at 10 μM, E0771-SULT cells, 24 hours, test compound 10 μM (Table 1)): 35.8% | activity at 10 µM ([1]; 24 h, read-out: CS production % activity at 10 μM, E0771-SULT cells, 24 hours, third concentration column of Table 1, head again printed 10 μM): 47.1% | activity at 20 µM ([1]; 24 h, read-out: CS production % activity at 20 μM, E0771-SULT cells, 24 hours, test compound 20 μM, relative to control without compound (100%)): 30.8% | IC50 ([1]; read-out: IC50 value (CS production)): 5.8 µM | growth of E0771-SULT-PD-L1 cells (tumor volume) (E0771-SULT-PD-L1 cells): renders E0771-SULT-PD-L1 cells susceptible to immune checkpoint inhibition; also recorded: causes the growth of E0771-SULT-PD-L1 cells (tumor volume) to be suppressed
